# In patent US20100286024A1, “Insulinotropic compounds and uses thereof” (priority 2005, published 2010):
# Key:
# [1] = molecular target: DPP-IV (Homo sapiens, UniProt P27487); assay: Dipeptidyl Peptidase IV (DPP-IV) digestion, stability by RP-HPLC (Example 10); type: in vitro ADME
# Description: (§1) Their stabilities were monitored by RP-HPLC, noting the disappearance of the intact sequence and appearance of a species missing the N terminal dipeptide or similar fragment.
# [2] = system: DPP-IV; assay: as above; type: in vitro ADME; conditions: DPP-IV (isolated peptidase); pH 7.5, 37° C., DPP-IV, 22 hr; new species at 3220 mu, loss of the His-Ala dimer; read-out: share hydrolyzed by DPP-IV within 22 hr
# Description: as §1
# [3] = Control study: chemical stability in PBS/triethanolamine without DPP-IV; type: physicochemical; conditions: PBS/triethanolamine solution without DPP-IV, PBS/TEthA, pH 7.5, 37°, no DPP-IV, read-out: percentage of peptide remaining
# Description: In the control study, peptides were incubated with PBS/triethanolamine solution in the absence of DPP-IV to measure their chemical stability.
# [4] = system: beta TC-6 cell line; assay: Insulin release assay (insulin ELISA); type: cell-based, mouse; conditions: for Insulin release: 5 mM glucose, 30 minutes, Beta-TC-6 cells, cells only 1.37-3.67
# Description: This was derived from a pancreatic tumor (insulinoma) arising in a transgenic mouse.
# Beta-TC-6 cells were purchased from A.T.C.C. (A.T.C.C. number CCL-11506; Manassas, Va., U.S.A.). Beta-TC-6 cells were cultured in Dulbecco's Modified Eagle's medium supplemented with 15% (v/v) heat-inactivated foetal bovine serum, 1% (v/v) glutamine, 0.45% (w/v) glucose and 0.15% (w/v) sodium bicarbonate at 37° C. in a humidified 5% CO2 atmosphere. Beta-TC-6 cells form islands and the monolayer never becomes confluent; cells were passaged at 70% confluence (7 days from seeding) at a subcultivation ratio of 1:4. The monolayer was disrupted from the surface of the culture flask with 0.25% (w/v) Trypsin-0.53 mM EDTA.
# Beta-TC-6 cells were cultured in 12 well plates for between 4-8 days prior to use. Cells were cultured in Krebs-Ringer (10 mM Hepes, pH 7.4, 136 mM NaCl, 4.7 mM KCl and 1.25 mM MgSO4) supplemented with 5 mM glucose for 1 hr at 37° C. in a humidified 5% CO2 atmosphere. This medium was removed, cells washed with Krebs-Ringer. Beta-TC-6 cells were then cultured in 1 ml per well of Krebs-Ringer supplemented with 5 mM glucose and 0, 0.12, 0.6, 3 and 15 μM of peptide in duplicate for 30 minutes at 37° C. in a humidified 5% CO2 atmosphere. Medium was removed, diluted 1:5, and insulin concentration determined using an insulin ELISA kit (Mercodia, Uppsala, Sweden) according to the manufacturer's protocol. Beta-TC-6 cells were washed three times with ice-cold PBS and extracted into 0.5 ml lysis buffer (62.5 mM Tris, pH 7.5, and 1%, v/v, SDS) per well. Protein concentration was determined by Lowry assay. […] Only single-sided p values are shown.
# Sequence of DPP-IV (Homo sapiens, UniProt P27487) (P27487 whole entry, species assumed): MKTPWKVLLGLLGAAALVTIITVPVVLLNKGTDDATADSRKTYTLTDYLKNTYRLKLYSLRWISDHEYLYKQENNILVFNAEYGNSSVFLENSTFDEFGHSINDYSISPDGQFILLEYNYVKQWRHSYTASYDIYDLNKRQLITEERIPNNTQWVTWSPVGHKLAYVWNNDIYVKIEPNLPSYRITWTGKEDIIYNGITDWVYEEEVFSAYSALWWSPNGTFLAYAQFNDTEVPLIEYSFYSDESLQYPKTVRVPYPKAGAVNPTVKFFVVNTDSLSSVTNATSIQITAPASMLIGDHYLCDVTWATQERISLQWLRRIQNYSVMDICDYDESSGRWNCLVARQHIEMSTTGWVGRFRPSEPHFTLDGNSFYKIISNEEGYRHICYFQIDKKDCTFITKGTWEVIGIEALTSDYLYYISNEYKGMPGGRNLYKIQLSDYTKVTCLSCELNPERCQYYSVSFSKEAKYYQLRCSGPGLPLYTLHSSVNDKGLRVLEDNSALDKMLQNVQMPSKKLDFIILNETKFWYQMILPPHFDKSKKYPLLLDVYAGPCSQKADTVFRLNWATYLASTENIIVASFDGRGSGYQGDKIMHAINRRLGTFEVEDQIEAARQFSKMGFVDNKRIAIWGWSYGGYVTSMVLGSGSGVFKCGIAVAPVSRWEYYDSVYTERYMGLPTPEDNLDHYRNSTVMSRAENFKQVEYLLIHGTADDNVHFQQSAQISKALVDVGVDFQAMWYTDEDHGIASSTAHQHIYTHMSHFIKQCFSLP
smiles,measurement,setting,value
"CC[C@H](C)[C@H](NC(=O)[C@H](Cc1ccccc1)NC(=O)[C@H](CCC(=O)O)NC(=O)[C@H](CCCCN)NC(=O)[C@H](C)NC(=O)[C@H](C)NC(=O)[C@H](CCC(N)=O)NC(=O)CNC(=O)[C@H](CCC(=O)O)NC(=O)[C@H](CC(C)C)NC(=O)[C@H](Cc1ccc(O)cc1)NC(=O)[C@H](CO)NC(=O)[C@H](CO)NC(=O)[C@@H](NC(=O)[C@H](CC(=O)O)NC(=O)[C@H](CO)NC(=O)[C@@H](NC(=O)[C@H](Cc1ccccc1)NC(=O)[C@@H](NC(=O)CNC(=O)[C@H](CCC(=O)O)NC(=O)CNNC(=O)[C@H](C)NC(=O)[C@@H](N)Cc1c[nH]cn1)[C@@H](C)O)[C@@H](C)O)C(C)C)C(=O)N[C@@H](C)C(=O)N[C@@H](Cc1c[nH]c2ccccc12)C(=O)N[C@@H](CC(C)C)C(=O)N[C@H](C(=O)N[C@@H](CCCCN)C(=O)NCC(=O)N[C@@H](CCCNC(=N)N)C(=O)NCC(=O)O)C(C)C [SP007, L-His-L-Ala-NH—NH—CH2—C(O)-Glu9-37]",remaining at 22 h,"[1]; DPP-IV (isolated peptidase), PBS/TEthA, pH 7.5, 37°, DPP-IV, 22 hr, read-out: percentage of analogue remaining",< 5%
same,remaining at 47 h,"[1]; DPP-IV (isolated peptidase), PBS/TEthA, pH 7.5, 37°, DPP-IV, 47 hr, read-out: percentage of analogue remaining",< 5%
same,susceptibility to DPP-IV hydrolysis,"[1]; pH 7.5, 37° C., up to 47 hr",susceptible to DPP-IV hydrolysis
same,metabolised at 22 h,[2],> 90%
same,remaining at 22 h,[3]; 22 hr,95%
same,remaining at 47 h,[3]; 47 hr,95%
same,Insulin release,[4]; 3 μM peptide,4.51 ng/min/mg
same,Activity of 3 μM of each peptide as percentage of insulin release by cells only,"[4]; 3 μM peptide, cells alone=100%",113 ± 65%
same,Insulin release,[4]; 15 μM peptide,8.08 ng/min/mg
same,Activity of 15 μM of each peptide as percentage of insulin release by cells only,"[4]; 15 μM peptide, cells alone=100%",235 ± 91%
